# US12180183B2, “Water-soluble fluorescent probe and nanoparticals with aggregation-induced emission effect for ovarian cancer and preparation method and use thereof” (HUNAN TARGETING DETECTION TECHNOLOGY CO., LTD, priority 2018, dated 2024)
# Tests used:
# [1] = Linear relationship between fluorescence intensity of the probe nanoparticles and lysophosphatidic acid concentration; details: compound 3 20 μM, phosphate buffer pH 7.4, incubated 1 min at room temperature
# Description: (§1) 40 μL of compound 3 (1 mM) in a phosphate buffer solution was taken by using a pipette and placed in an ep-tube. 1960 μL of a phosphate buffer solution (pH=7.4) was added into the ep-tube under an ultrasonic condition so that the final concentration of compound 3 was 20 μM. The mixture was stirred for 30 min under room temperature to generate opalescence. In order to verify nano-aggregation behavior thereof, an average particle size thereof measured by a dynamic light scattering experiment was 600 nm, as shown in FIG. 1.
# A series of different volumes of the stock solution of lysophosphatidic acid in the phosphate buffer solution were respectively added to the system prepared in Example 2, so that the final concentrations of lysophosphatidic acid respectively were 0 μM, 0.2 μM, 0.4 μM, 0.8 μM, 1.0 μM, 1.2 μM, 1.4 μM, 1.8 μM, 2.0 μM, 4.0 μM, 8.0 μM, 10.0 μM, 12.0 μM, 14.0 μM, 16.0 μM, 18.0 μM, 20.0 μM, 25.0 μM, 30.0 μM, 33.0 μM. After all of testing solution were prepared, the testing solutions were mixed uniformly with a vortex. After being incubated for 1 min at room temperature, the fluorescence emission intensity thereof at 557 was measured.
# [2] = Selectivity of the fluorescent nanoprobe for detecting lysophosphatidic acid; details: compound 3 10 μM, excitation 400 nm
# Description: The prepared fluorescent molecular probe solution was used for evaluating the selectivity of the probe to lysophosphatidic acid. An excitation wavelength of the nanoprobe was 400 nm. The concentration of the compound 3 in the system was 10 μM. Lysophosphatidic acid with a final concentration of 50 μM and L-proline, glycerin, sodium phosphate, magnesium sulfate, sodium acetate, sodium nitrate, sodium fluoride, glucose, urea, and lysophosphatidyl choline (LPC) with a final concentration of 1 mM were respectively added into the system. After fully mixing, the systems were incubated for 1 min at room temperature. Then fluorescence emission spectra thereof were measured and the fluorescence emission intensities at 557 nm were recorded.
# [3] = Dynamic light scattering of the self-assembled probe nanoparticles; type: physicochemical; details: compound 3 20 μM in phosphate buffer solution pH=7.4, dynamic light scattering
# Description: as §1
structure (smiles),measurement,setting,value
COc1ccc(-c2nc(-c3cc[n+](CCCCCCCCCCCC[n+]4ccccc4)cc3)n(-c3ccccc3)c2-c2ccc(OC)cc2)cc1 [Compound 3],lysophosphatidic acid concentration range with good linear relationship to fluorescence intensity at 557 nm,[1],0 to 33 µM
same,fluorescence emission at 557 nm after addition of lysophosphatidic acid,"[2]; lysophosphatidic acid 50 μM, 1 min at room temperature",strong yellow fluorescence
same,fluorescence emission at 557 nm after addition of other substances,"[2]; L-proline, glycerin, sodium phosphate, magnesium sulfate, sodium acetate, sodium nitrate, sodium fluoride, glucose, urea, LPC each 1 mM",could not be observed to generate yellow fluorescence
same,average particle size,[3],600 nm
